Assay results as given in patent US6979747B2, “Antioxidants, preparation processes and their uses” (Centre National de la Recherche Scientifique (CNRS), priority 1999, dated 2005).
pEC50: −log10 of the molar value.

Columns and labels:
[1] = system: HIV provirus; test: Quantification of proviral DNAs by PCR (integration of the provirus within the cell genome); assay type: cell-based; details: 10 μM
Protocol: I-152 is composed of MEA and NAC, which are capable of interacting with the early phases of the biological cycle of HIV. It is therefore capable of decreasing the integration of the provirus into the cell genome. In order to measure these effects, the proviral DNAs were quantified by PCR. The cells were lysed using 1 ml of the following lysis solution: 10 mM Tris HCl pH 8; 100 mM of EDTA pH 8; 0.5% of sodium dodecyl sulfate (SDS); 20 μg/ml of DNAse-free bovine pancreatic RNAse. 200 μg/ml of proteinase K are subsequently added to this suspension. The DNAs were subsequently extracted using 1 ml of an ice-cold saturated phenol solution and 1 ml of a […] solution.
The viral DNAs were then amplified by means of specific primers of the gag gene (SK01/SK39) and of a standard range of the 8E5 line, a chronically infected line, the cells of which carry a proviral copy. The β-globin gene was used as reporter gene in order to make sure of the quality of the DNA extraction.

[2] = system: MDMs; test: Cytotoxicity with respect to MDMs (neutral red); assay type: cell-based, human
Protocol: These tests are carried out systematically in parallel with the evaluation of the antiviral activity. In view of the oxidation/reduction capacity of the molecules tested, the test with the tetrazolium salt, which measures the activity of mitochondrial dehydrogenases, cannot be used.
Neutral red (NR) is a vital dye which makes it possible to measure the viability of adherent cells, such as MDMs. 600 μl of culture supernatant are removed and replaced with 400 μl of an NR solution (0.001% m/v in phosphate buffer, PBS, Boehringer Mannheim), filtered at 0.45 μm. The cells were incubated for 1 h at 37° C. and are subsequently washed (2×1 ml of PBS). The cells are then lysed at −20° C. with 200 μl of a 50% ethanol mixture comprising 1% of glacial acetic acid. The OD is measured twice with 100 μl of solution using a spectrophotometer.

[3] = system: HIV-1/Ba-L; test: Antiviral activity in MDM cultures infected with HIV-1/Ba-L (RT activity in culture supernatants); assay type: cell-based; details: for antiviral activity (in words): second series, compounds dissolved in DMSO then diluted, MDMs, HIV-1/Ba-L; for pEC50: Human immunodeficiency virus 1, BAL, MDMs infected with 10 000 TCID50s HIV-1/Ba-L (m.o.i. 0.01), read-out: inhibiting concentration (50% effective dose)
Protocol: A million monocytes in 1 ml of culture medium A are distributed in each well of a 48 well plate (Becton-Dickinson). The monocytes are left to differentiate into macrophages for 7 days. The macrophages thus differentiated are maintained in culture in medium A.
(§1) The MDMs were infected with the reference isolate with macrophage tropism, HIV-1/Ba-L. The PBMCs and the PBLs were infected with the reference isolate with lymphocyte tropism HIV-1 LAI. The viral stock were formed by amplifying these strains in vitro using umbilical blood mononucleated cells (UBM(s) preactivated with 1 μg/ml of PHA-P and cultured in medium A supplemented by 20 IU/ml of IL-2. In order to remove the soluble factors, such as cytokines, the culture supernatants were ultracentrifuged at 360 000 g for 5 min, and the pellets were resuspended in RPMI 1640. The viral stocks thus formed were subsequently titred using PBMCs activated with PHA-P. The TCID50s (50% Tissue Culture Infectious Dose) were calculated using the Kärber formula.
(§2) A million MDMs were infected with 10 000 TCID50s of the HIV-1/Ba-L strain. This amount of virus corresponds to a multiplicity of infection (m.o.i.) equal to 0.01. The excess of virus is removed 24 h after by washing with cells using RPMI 1640. The PBLs and the PBMCs were infected with 10 000 TCID50s of the HIV-1 LAI strain (moi=0.01). The cells were washed at the end of the second day of infection.
(§3) The viral replication is measured by assaying the RT activity in the culture supernatants according to the technique described by F. Rey et al. (Biochem. Biophys. Res. Comm., 1984, 121, 126-133). The radioactivity incorporated during the extension of the complementary strand of a poly-rA synthetic matrix in the presence of an oligo-dT12-18 primer and of a radiolabeled substrate, [^3H-methyl]thymidine-5′-triphosphate ([^3H]TPP), makes it possible to assay the enzymatic activity of RT. 400 μl of supernatant are ultracentrifuged at 360 000 g for 5 min. The RT is released by lysis of the viral pellet in 20 μl of NTE-Triton (100 mM NaCl, 10 mM Tris, 1 mM EDTA, 0.1% Triton X-100). These 20 μl are subsequently incubated with 40 μl of the following reaction mixture: 62.5 mM Tris, pH 7.8; 25 mM KCl; 6.25 mM MgCl2; 1.25 mM dithiothreitol (DTT); 2.5×10^−3 ODU oligo-dT12-18 and poly-rA, 5.55×10^−3 TBq {^3H]TTP. After one hour at 37° C., the enzymatic reaction is halted and the newly synthesized strands are precipitated for 20 min at 4° C. by the addition of 1 ml of sodium pyrophosphate (NaPP), of 50 μl of yeast DNA (0.1 mg/ml in 5% trichluoroacetic acid (TCA)), and of 4 ml of 20% TCA. The mixture is filtered using a cellulose acetate membrane (Millipore) which retains the radiolabeled poly-dT chains. The filter is washed using 20 ml of 5% TCA and the residual water is removed by addition of 25 μl of 70% ethanol. The filter is dried in an oven for 10 minutes at 80° C. and is then introduced into vials containing 8 ml of liquid scintillant. The β radioactivity is quantified by means of a scintillation counter (Packard Bell). The results are expressed in pM of [^3H]-TMP incorporated/h/ml of supernatant or, more simply, in cpm/h/ml.
The 50% effective doses (ED50) are calculated from the cumulative RT activities using the software “Dose-effects analysis with microcomputers” developed by J. Chou & T. C. Chou.

[4] = system: HIV-1 LAI; test: Antiviral activity in quiescent or PHA-P activated PBMCs infected with HIV-1 LAI; assay type: cell-based; details: quiescent and activated PBMCs, at known cytotoxic doses (so in the source)
Protocol: (§4) For some experiments, the PBMCs and the PBLs are activated for 48 h with 1 μg/ml of a mitogen, PHA-P (Difco Laboratories). The PBMCs and the PBLs are cultured in medium A (quiescent) or B (activated). The cells are cultured at 37° C. in an atmosphere saturated with moisture under 5% of CO2. The culture supernatants are removed and the culture media are replaced every three or four days. At each renewal of the culture media, the cell viability is evaluated by coloring with trypan blue or by microscopic observation.
as §1, §2, §3
The PBMCs, quiescent or activated by PHA-P, were infected by the reference strain with lymphocyte tropism HIV-1 LAI. All the culturings were carried out in parallel and the drugs were maintained throughout the culturing.

[5] = system: total glutathione (GSH+GSSG); test: Total intracellular glutathione in quiescent PBMCs; assay type: cell-based, human; details: quiescent PBMCs; for effect on intracellular level of glutathione (in words): 24 h treatment
[6] = system: HIV-1 LAI; test: Antiviral activity in quiescent or PHA-P activated PBLs infected with HIV-1 LAI; assay type: cell-based; details: quiescent PBLs or PBLs activated by PHA-P
Protocol: as §4, §1
A million MDMs were infected with 10 000 TCID50s of the HIV-1/Ba-L strain. This amount of virus corresponds to a multiplicity of infection (m.o.i.) equal to 0.01. The excess of virus is removed 24 h after by washing with cells using RPMI 1640. […]
The viral replication is measured by assaying the RT activity in the culture supernatants according to the technique described by F. Rey et al. (Biochem. Biophys. Res. Comm., 1984, 121, 126-133). The radioactivity incorporated during the extension of the complementary strand of a poly-rA synthetic matrix in the presence of an oligo-dT12-18 primer and of a radiolabeled substrate, [^3H-methyl]thymidine-5′-triphosphate ([^3H]TPP), makes it possible to assay the enzymatic activity of RT. […] The β radioactivity is quantified by means of a scintillation counter (Packard Bell). […]

[7] = system: GSH; test: Intracellular GSH in MDMs infected with HIV-1/Ba-L; assay type: cell-based, human; details: conditions of stress
Protocol: The intracellular GSH was assayed by means of the assay kit sold by Cayman. This method for assaying glutathione is an adaptation of that described by O. W. Griffith et al. (1980).
The compound I-152 and its derivatives are prepared extemporaneously by being dissolved in dimethyl sulfoxide (DMSO) at the concentration of 100 mM. They are subsequently stored at −20° C. after having been diluted 10 fold in phosphate buffer (PBS).

[8] = target: T1, RT of the HIV-1 LAI isolate (Human immunodeficiency virus type 1 group M subtype B, UniProt P03367); test: Acellular test of the enzymatic activity of RT; assay type: biochemical; details: for decrease of RT activity: 500 μM
T1 construct: The RT is released by lysis of the viral pellet in 20 μl of NTE-Triton; endogenous in cells; host or cells: Virions pelleted by ultracentrifugation from supernatants of infected cell cultures
Protocol: as §3
The I-152 molecule is composed of NAC and MEA, which are capable of inhibiting the activity of RT (A. Bergamini et al., J. Clin. Invest., 1994, 93, 2251-2257). For this reason, the inhibiting capacity of I-152 with respect to the RT activity was measured using an acellular test. This test was carried out according to the protocol described above (§ 3.3.3.1.). In the reaction mixture, only the 20 μl of water are replaced by 20 μl of a concentration of I-152 or of the reference compounds. Heparin, known for inhibiting the activity of RT and of the other DNA polymerases, is used as positive control for inhibition.

[9] = system: PBMCs; details: PBMC cultures
[10] = system: PBLs; details: PBL cultures

Cc1cn([C@H]2C[C@H](N=[N+]=[N-])[C@@H](CO)O2)c(=O)[nH]c1=O [AZT, 3′-azido-3′-deoxythymidine, reference compound]
inhibition of integration of the provirus (in words) [1]: perfect

CC(=O)N[C@@H](CSC(C)=O)C(=O)NCCSC(C)=O [I-176, N-(N,S-bisacetyl-L-cysteinyl)-S-acetylcysteamine]
cytotoxicity (in words) ([2]; FIG. 12, at the dose tested): cytotoxic | toxicity (in words) ([2]; MDMs, 150 μM, second series in DMSO): slightly toxic

CC(=O)N[C@@H](CSC(=O)C(C)C)C(=O)NCCSC(C)=O [I-177, N-(N-acetyl-S-isobutyryl-L-cysteinyl)-S-acetylcysteamine]
antiviral activity (in words) [3]: activities similar to that of I-152

CC(=O)N[C@@H](CSC(=O)C(C)(C)C)C(=O)NCCSC(C)=O [I-178, N-(N-acetyl-S-pivaloyl-L-cysteinyl)-S-acetylcysteamine]
antiviral activity (in words) [3]: activities similar to that of I-152

NCCS [MEA, cysteamine, reference compound]
inhibition of viral replication (in words) [4]: do not inhibit viral replication | intracellular glutathione at high concentration (in words) ([5]; 500 μM): decrease | effect on intracellular level of glutathione (in words) [5]: does not significantly alter the intracellular level of glutathione | antiviral activity (in words) [6]: do not have or have a very slight antiviral activity | decrease of the viability of MDMs ([2]; MDMs, 500 μM): 65% | cytotoxicity at antiviral doses (in words) ([2]; MDMs): cytotoxic | regeneration of GSH under conditions of stress (in words) [7]: ineffective | pEC50 [3]: 3.52 | decrease of RT activity ([8]; exp. 1): 29±1% | decrease of RT activity ([8]; exp. 2): 48±4% | dose from which cytotoxic [9]: 500 µM | dose from which cytotoxic [10]: 500 µM

CC(=O)N[C@@H](CS)C(=O)O [NAC, N-Acetyl-L-cysteine]
inhibition of viral replication (in words) [4]: do not inhibit viral replication | effect on intracellular level of glutathione (in words) [5]: better at increasing the intracellular level of glutathione | intracellular concentration of total glutathione ([5]; dose 15 mM): ~2.64 ± 0.13 µM | antiviral activity (in words) [6]: do not have or have a very slight antiviral activity | cytotoxicity ([2]; MDMs, 15 mM): 70% | cytotoxicity ([2]; MDMs, 40 mM): 91% | cytotoxicity at antiviral doses (in words) ([2]; MDMs): cytotoxic | regeneration of GSH under conditions of stress (in words) [7]: ineffective | pEC50 [3]: 2.03 | inhibiting activity with respect to RT (in words) ([8]; acellular system): do not exhibit an inhibiting activity

heparin
inhibition of RT activity (in words) ([8]; 1 mg/ml, acellular): completely inhibits
